The nature of assay [1]: Antiinflammatory activity in human HT-29 cells assessed as inhibition of TNF-alpha induced BCECF-AM labeled human U937 cell adhesion at 1 uM preincubated for 1 hr followed by stimulation with TNF-alpha for 3 hrs followed by further co-incubation with BCECF-AM labeled human U937 cells for 1 hr by fluorescent/light microscopic analysis. It counts as functional.
Assay [2] relates to Rattus norvegicus. In words: Antiinflammatory activity in TNBS-induced Sprague-Dawley rat colitis model assessed as body weight recovery at 300 mg/kg/day, po administered for 5 days post 1 day of TNBS-challenge measured daily during compound dosing relative to control. It counts as functional.
Assay [3] has as its system Rattus norvegicus. The assay can be described thus: Antiinflammatory activity in TNBS-induced Sprague-Dawley rat colitis model assessed as colon weight recovery at 300 mg/kg/day, po administered for 5 days post 1 day of TNBS-challenge relative to control. The assay is classed as functional.
The test system of assay [4] is Rattus norvegicus. The assay can be described thus: Antiinflammatory activity in TNBS-induced Sprague-Dawley rat colitis model assessed as inhibition of myeloperoxidase level in colon at 300 mg/kg/day, po administered for 5 days post 1 day of TNBS-challenge by colorimetric method relative to control. It counts as functional.
Assay [5] in a line: Antiinflammatory activity in human HT-29 cells assessed as inhibition of TNF-alpha induced BCECF-AM labeled human U937 cell adhesion preincubated for 1 hr followed by stimulation with TNF-alpha for 3 hrs followed by further co-incubation with BCECF-AM labeled human U937 cells for 1 hr by fluorescent/light microscopic analysis. It counts as functional, cell-based.
The test system of assay [6] is Rattus norvegicus. The assay can be described thus: Antiinflammatory activity in TNBS-induced Sprague-Dawley rat colitis model assessed as body weight recovery at 0.1 mg/kg/day, po administered for 5 days post 1 day of TNBS-challenge measured daily during compound dosing relative to control. The assay is classed as functional.
Assay [7] deals with Rattus norvegicus. In words: Antiinflammatory activity in TNBS-induced Sprague-Dawley rat colitis model assessed as body weight recovery at 1 mg/kg/day, po administered for 5 days post 1 day of TNBS-challenge measured daily during compound dosing relative to control. The assay is classed as functional.
Assay [8] deals with Rattus norvegicus. In words: Antiinflammatory activity in TNBS-induced Sprague-Dawley rat colitis model assessed as body weight recovery at 10 mg/kg/day, po administered for 5 days post 1 day of TNBS-challenge measured daily during compound dosing relative to control. The assay is classed as functional.
Assay [9] concerns Rattus norvegicus. The assay can be described thus: Antiinflammatory activity in po dosed TNBS-induced Sprague-Dawley rat colitis model assessed as body weight recovery compound administered for 5 days post 1 day of TNBS-challenge measured daily during compound dosing. It counts as functional, organism-based.
Assay [10] relates to Rattus norvegicus. In words: Antiinflammatory activity in TNBS-induced Sprague-Dawley rat colitis model assessed as colon weight recovery at 0.1 mg/kg/day, po administered for 5 days post 1 day of TNBS-challenge relative to control. The assay is classed as functional.
In assay [11] the test system is Rattus norvegicus. The assay can be described thus: Antiinflammatory activity in TNBS-induced Sprague-Dawley rat colitis model assessed as colon weight recovery at 1 mg/kg/day, po administered for 5 days post 1 day of TNBS-challenge relative to control. The assay is classed as functional.
Assay [12] deals with Rattus norvegicus. The assay can be described thus: Antiinflammatory activity in TNBS-induced Sprague-Dawley rat colitis model assessed as colon weight recovery at 10 mg/kg/day, po administered for 5 days post 1 day of TNBS-challenge relative to control. The assay is classed as functional.
The test system of assay [13] is Rattus norvegicus. The assay can be described thus: Antiinflammatory activity in po dosed TNBS-induced Sprague-Dawley rat colitis model assessed as reduction in colon edema and adhesion administered for 5 days post 1 day of TNBS-challenge by microscopic analysis. It counts as functional, organism-based.
Assay [14] relates to Rattus norvegicus. In words: Antiinflammatory activity in po dosed TNBS-induced Sprague-Dawley rat colitis model assessed as recovery of increase in colon wet weight administered for 5 days post 1 day of TNBS-challenge. The assay is classed as functional, organism-based.
For assay [15], the system named is Rattus norvegicus. The assay can be described thus: Antiinflammatory activity in TNBS-induced Sprague-Dawley rat colitis model assessed as inhibition of myeloperoxidase level in colon at 0.1 mg/kg/day, po administered for 5 days post 1 day of TNBS-challenge by colorimetric method relative to control. The assay is classed as functional.
Assay [16] has as its system Rattus norvegicus. In words: Antiinflammatory activity in TNBS-induced Sprague-Dawley rat colitis model assessed as inhibition of myeloperoxidase level in colon at 1 mg/kg/day, po administered for 5 days post 1 day of TNBS-challenge by colorimetric method relative to control. It counts as functional.
Assay [17] concerns Rattus norvegicus. The assay can be described thus: Antiinflammatory activity in TNBS-induced Sprague-Dawley rat colitis model assessed as inhibition of myeloperoxidase level in colon at 10 mg/kg/day, po administered for 5 days post 1 day of TNBS-challenge by colorimetric method relative to control. It counts as functional.
Assay [18] is filed under the species Rattus norvegicus. The assay can be described thus: Potency index, ratio of compound efficacy to sulfasalazine efficacy in TNBS-induced Sprague-Dawley rat colitis model assessed as body weight recovery. It counts as functional.
For assay [19], the species on record is Rattus norvegicus. The assay can be described thus: Potency index, ratio of compound efficacy to sulfasalazine efficacy in TNBS-induced Sprague-Dawley rat colitis model assessed as colon weight recovery. The assay is classed as functional.
The species named for assay [20] is Rattus norvegicus. In words: Potency index, ratio of compound efficacy to sulfasalazine efficacy in TNBS-induced Sprague-Dawley rat colitis model assessed as inhibition of MPO level in colon. It counts as functional.
A short description of assay [21]: Antiinflammatory activity in human HT-29 cells assessed as inhibition of TNF-alpha induced BCECF-AM labeled human U937 cell adhesion at 20 mM preincubated for 1 hr followed by stimulation with TNF-alpha for 3 hrs followed by further co-incubation with BCECF-AM labeled human U937 cells for 1 hr by fluorescent/light microscopic analysis. The assay is classed as functional.

The term inhibition denotes the drop in the measured response relative to a control, in per cent. Take `Cc1nc(Nc2ccccc2)c(C)c(C)c1O`: in assay [1], the inhibition at 1 µM came to 73.6%. By inhibition in vivo is commonly meant the drop in the measured response relative to a control, in per cent. Take `O=C(O)c1cc(/N=N/c2ccc(S(=O)(=O)Nc3ccccn3)cc2)ccc1O` [SULFASALAZINE]: the Activity with Rattus norvegicus [2] amounted to 55.6%; in the assay on Rattus norvegicus [3], 67.1%. The inhibition in vivo at 300 mg/kg/day with Rattus norvegicus [4] was found to be 58.6%. For `Cc1nc(Nc2cccc3ccccc23)c(C)c(C)c1O`, in assay [1], the inhibition at 1 µM is 52.4%. On to `Cc1nc(Nc2ccc(C(C)(C)C)cc2)c(C)c(C)c1O`, for which the inhibition at 1 µM in assay [1] is 27.3%. As for `Cc1nc(N2CCCC2)c(C)c(C)c1O`, in assay [1], the inhibition at 1 µM came to 36.7%.

On to `Cc1nc(N(C)c2ccc(F)cc2)c(C)c(C)c1O`, for which the inhibition at 1 µM in assay [1] turned out to be 77.2%.

As to `Cc1nc(N2CCC(C(O)(c3ccccc3)c3ccccc3)CC2)c(C)c(C)c1O`, the inhibition at 1 µM in assay [1] was -7%. In the case of `Cc1nc(NCCCO)c(C)c(C)c1O`, the inhibition at 1 µM in [1] is 19%. Same read-out and setting: the figure for `Cc1nc(N2CCOCC2)c(C)c(C)c1O` is 67.7%; for `Cc1nc(NCc2ccc(-c3ccccc3)cc2)c(C)c(C)c1O` it is 1.3%.

Turning to `Cc1nc(-n2cccc2)c(C)c(C)c1O`, in assay [1], the inhibition at 1 µM was found to be 56.1%. Turning to `CCCCCCNc1nc(C)c(O)c(C)c1C`, the inhibition at 1 µM in assay [1] worked out at 28.4%. Turning to `Cc1nc(N)c(C)c(C)c1O`, in [1], the inhibition at 1 µM came out at 22.9%.

Consider `Nc1cccc2c1CN(C1CCC(=O)NC1=O)C2=O` (stereo not given) [LENALIDOMIDE], for which the inhibition at 1 µM in assay [1] was 64.6%. As for `COc1ccc(Nc2nc(C)c(O)c(C)c2C)cc1`, the inhibition at 1 µM in assay [1] was determined as 14%. Turning to `CCCCCCCCCCCCCCCCNc1nc(C)c(O)c(C)c1C`, the inhibition at 1 µM in assay [1] is 26.9%. For the compound `Cc1nc(Nc2ccc(Cl)cc2)c(C)c(C)c1O`, the inhibition at 1 µM in [1] was 28.4%. As for `Cc1nc(Nc2cccc([N+](=O)[O-])c2)c(C)c(C)c1O`, the inhibition at 1 µM in assay [1] stood at 18.5%. Take `Cc1nc(Nc2ccc(Br)cc2)c(C)c(C)c1O`: the inhibition at 1 µM in [1] came out at 47.2%. For `Cc1nc(Nc2ccc(Oc3ccccc3)cc2)c(C)c(C)c1O`, the inhibition at 1 µM in [1] amounted to 17.3%. `Cc1nc(Nc2ccc([N+](=O)[O-])cc2)c(C)c(C)c1O`: the inhibition at 1 µM in assay [1] was 39%.

On to `Cc1nc(Nc2cccc(Cl)c2)c(C)c(C)c1O`, for which the inhibition at 1 µM in assay [1] is 42.5%. For the compound `Cc1nc(N(C)c2ccc(Cl)cc2)c(C)c(C)c1O`, in assay [1], the inhibition at 1 µM is 65.2%. As for `Cc1cccc(Nc2nc(C)c(O)c(C)c2C)c1`, the inhibition at 1 µM in assay [1] was 74%. With `Cc1nc(Nc2cccc(Br)c2)c(C)c(C)c1O`, the inhibition at 1 µM in assay [1] is 20.5%. Regarding `Cc1nc(N(c2ccccc2)c2ccc3ccccc3c2)c(C)c(C)c1O`, the inhibition at 1 µM in assay [1] turned out to be 13.4%.

Turning to `CCCCCCCCCCc1ccc(Nc2nc(C)c(O)c(C)c2C)cc1`, the inhibition at 1 µM in [1] was 76.6%. On the same count and under the same terms, the figure for `Cc1nc(Nc2cccc(F)c2)c(C)c(C)c1O` is 16.3%.

On to `Cc1cccc(N(C)c2nc(C)c(O)c(C)c2C)c1`, for which the inhibition at 1 µM in assay [1] amounted to 63.2%. Consider `Cc1nc(Nc2ccccc2C(C)C)c(C)c(C)c1O`, for which, in [1], the inhibition at 1 µM stood at 37.8%. In the case of `Cc1ccc(N(C)c2nc(C)c(O)c(C)c2C)cc1`, the inhibition at 1 µM in assay [1] was found to be 67.4%. Consider `Cc1nc(Nc2cccc(OC(C)C)c2)c(C)c(C)c1O`, for which the inhibition at 1 µM in assay [1] was found to be 24.9%. In general, IC50 refers to the midpoint of a concentration-inhibition curve. In the case of `CCCc1ccc(Nc2nc(C)c(O)c(C)c2C)cc1`, the inhibition at 1 µM in assay [1] was found to be 77.9%. Besides, the IC50 in assay [5] turned out to be 0.00019 mM. Also, the Activity in the assay on Rattus norvegicus [6] is 47.2%; in the assay on Rattus norvegicus [7], 58.3%; with Rattus norvegicus [8], 69.9%; in the assay with Rattus norvegicus [9], “Dose-dependent effect”; in the assay with Rattus norvegicus [10], 56.6%; with Rattus norvegicus [11], 72.6%. Also, the Activity in the assay with Rattus norvegicus [12] is 88.6%; with Rattus norvegicus [13], “Dose-dependent effect”; in the assay with Rattus norvegicus [14], “Dose-dependent effect”. Besides, in the assay on Rattus norvegicus [15], the inhibition in vivo at 0.1 mg/kg/day came to 55.4%. Moreover, the inhibition in vivo at 1 mg/kg/day with Rattus norvegicus [16] is 79.9%. The inhibition in vivo at 10 mg/kg/day with Rattus norvegicus [17] was 96.3%. Moreover, the Ratio in the assay listed under Rattus norvegicus [18], in the assay listed under Rattus norvegicus [19] and in the assay listed under Rattus norvegicus [20] was more than 300 each time. `Cc1nc(Nc2ccc(F)cc2)c(C)c(C)c1O`: the inhibition at 1 µM in [1] turned out to be 71.5%. On to `Cc1nc(NC2CCCC2)c(C)c(C)c1O`, for which the inhibition at 1 µM in assay [1] is 73.3%. With `Cc1nc(N(c2ccccc2)c2ccccc2)c(C)c(C)c1O`, the inhibition at 1 µM in assay [1] was 41.3%.

With `Cc1nc(N2CCN(C)CC2)c(C)c(C)c1O`, in assay [1], the inhibition at 1 µM was 47.6%.

As to `Cc1ccc(Nc2nc(C)c(O)c(C)c2C)cc1`, the inhibition at 1 µM in assay [1] was 84.4%. As for `Cc1nc(NCc2ccc(C(C)(C)C)cc2)c(C)c(C)c1O`, the inhibition at 1 µM in [1] is 49.2%. Take `Cc1nc(NCc2ccccc2)c(C)c(C)c1O`: in assay [1], the inhibition at 1 µM was 35.7%.

In the case of `Cc1nc(N(C)c2ccccc2)c(C)c(C)c1O`, the inhibition at 1 µM in assay [1] was found to be 58.1%. Still for that read-out and setting: the figure for `Cc1nc(N2CCCCC2)c(C)c(C)c1O` is 47.9%. As for `Cc1nc(Nc2ccc3c(c2)OCO3)c(C)c(C)c1O`, in assay [1], the inhibition at 1 µM turned out to be 26.5%. `Cc1nc(NC2CCCCC2)c(C)c(C)c1O`: in assay [1], the inhibition at 1 µM was found to be 36%. Consider `Nc1ccc(O)c(C(=O)O)c1` [MESALAMINE], for which, in assay [1], the inhibition at 1 µM was found to be 3.8%. Moreover, the inhibition at 20000 µM in assay [21] was found to be 52.7%. Further, in [5], the IC50 worked out at 18.1 mM.

The values are drawn from ChEMBL document CHEMBL3860056, “In vitro and in vivo inhibitory activity of 6-amino-2,4,5-trimethylpyridin-3-ols against inflammatory bowel disease” (Bioorg Med Chem Lett, 2016).
